Tests used:
Toxicity (LD50), rats = conditions: rat, in vivo, ip
dopamine-β-hydroxylase [1] = assay: Noradrenaline content of spleen (dopamine-β-hydroxylase inhibiting effect); assay type: in vivo, male Wister rats; conditions: rats, i.p., 4 hours; for response vs control in vivo at 100 mg/kg / response vs control in vivo at 200 mg/kg: Rattus norvegicus, ip, ± Standard Error, read-out: Amine level, spleen NA (noradrenaline)
Method: (§1) The dopamine-β-hydroxylase inhibiting effects of the compounds according to the invention were examined by the following tests:
(§2) The tests were performed on male Wister rats weighing 150 to 200 g. The dopamine-β-hydroxylase inhibiting effects of the compounds were evaluated by determining the change of noradrenaline, dopamine and adrenaline levels of the cerebrum, heart, spleen and adrenal gland. The serotonine and 5-hydroxy-indolyl-acetic acid levels of the cerebrum were also determined. The measurements were performed as follows:
(§3) The animals were decapitated, the cerebrum, heart, spleen and adrenal gland were removed quickly, and the organs were frozen by placing them onto a metal sheet cooled with dry ice. The frozen organs were stored for a maximum of one night at -20° C.
(§4) Determination of the noradrenaline content of heart and spleen
(§5) The organs were weighed in frozen state and then homogenized in 5.0 ml of 0.4 N perchloric acid containing 0.05% of EDTA-Na2 and 0.1% of Na2 S2 O5. The homogenized mixtures were centrifuged as described above for the treatment of adrenal gland, the supernatants were decanted, and the pH was adjusted to 8.0±0.1 with a 0.1 molar tris buffer containing 20 g/l of NaOH and 25 g/l of EDTA-Na2. 100 mg of prepared Al2 O3 (Anton et al: J. Pharm. Ther., Vol. 138, p. 360, 1962) were added to the samples, and the mixtures were shaken mechanically for 20 minutes. Thereafter the Al2 O3 were washed with 2.10 ml of distilled water, and the noradrenaline was eluted with 1.0 ml of 0.05 N perchloric acid. 0.5 ml samples of the eluate were applied for the determination of noradrenaline.
(§6) Noradrenaline was determined according to the method of Shellenberger et al (Anal. Biochem., Vol. 39, p. 356, 1971), with the following modifications of the basic procedure: 0.5 ml of 0.1 molar Na-K-phosphate buffer, containing 9 g/l of EDTA-Na2, were added to 0.5 ml of the eluate, and the catecholamines (noradrenaline in the examination of heart and spleen and noradrenaline and dopamine in the examination of the cerebrum) were oxidized with 0.1 ml of a 0.1 N iodine solution in 5% potassium iodide. […] Thereafter the samples were placed for 5 minutes in a drying oven heated to 100° C., and then the samples were cooled with ice water. The fluorescence of noradrenaline was measured with an OPTON spectrophotometer at wavelengths of 390 nm (excitation) and 490 nm (emission).
(§7) In the tests disulfiram, 2,2-dipyridyl, bis(1-methyl-4-homopiperazinyl-thiocarbonyl)-disulfide, sodium diethyldithiocarbamate and N-phenyl-N'-(2-thiazolyl)-thiourea were used as reference substances. The values indicated in Table 1 are percentages in relation to the amine levels of the controls measured in the same tests (± Standard Error). The statistical calculations were performed on a TPA/i type computer, using Student's test.

dopamine-β-hydroxylase [2] = conditions: in vitro, in words, prior art; cited from earlier work
dopamine-β-hydroxylase [3] = assay: Noradrenaline content of heart (dopamine-β-hydroxylase inhibiting effect); assay type: in vivo, male Wister rats; conditions: rats, i.p., 4 hours; for response vs control in vivo at 100 mg/kg / response vs control in vivo at 200 mg/kg: Rattus norvegicus, ip, ± Standard Error, read-out: Amine level, heart NA (noradrenaline)
Method: as §1, §2, §3, §4, §5, §6, §7

dopamine-β-hydroxylase [4] = assay: Noradrenaline, dopamine, serotonine and 5-hydroxy-indolylacetic acid contents of cerebrum (dopamine-β-hydroxylase inhibiting effect); assay type: in vivo, male Wister rats; conditions: rats, i.p., 4 hours; for response vs control in vivo at 100 mg/kg / response vs control in vivo at 200 mg/kg: Rattus norvegicus, ip, ± Standard Error
Method: as §1, §2, §3, §6
Determination of the noradrenaline, dopamine, serotonine and 5-hydroxy-indolylacetic acid contents of cerebrum
The brains were homogenized in 10 parts by volume of 0.4 N perchloric acid. The homogenized mixture was stored at -20° C. overnight; thereafter it was thawed and centrifuged as described above. A sample of homogenized mixture corresponding to 0.5 g of brain was removed, the pH of the sample was adjusted to 8.0±0.1 with 0.1 molar tris-buffer of the above composition, and the sample was processed as described above for the determination of the noradrenaline content of heart and spleen, with the difference that 1.5 ml of 0.05 N perchloric acid were applied as eluting agent. 0.5 ml of the eluate were applied to determine the noradrenaline and dopamine content. The measurement was performed as described above, with the difference that samples of 0.5 ml were applied for the recording of the fluorescence of noradrenaline. The residue was placed for 50 minutes into a drying oven heated to 100° C.; thereafter the sample was cooled with ice water, and the fluorescence of dopamine was recorded at wavelengths of 325 nm (excitation) and 380 nm (emission).
In a further test series the serotonine and 5-hydroxy-indolylacetic acid contents were also determined, in addition to the determination of the noradrenaline and dopamine contents, from the same sample. In this instance the brains were homogenized in 10 ml of 75% ethanol, 0.2 ml of EDTA-Na2 and 5% of ascorbic acid were added to the homogenized mixtures, and the homogenized mixtures were maintained at -20° C. overnight. The mixtures were then centrifuged as described above, and 5.0 ml samples of the supernatant were removed. The samples were diluted with equal volumes of distilled water, and poured onto ion-exchange columns of 0.5×1.5 cm dimensions, filled with buffered Amberlite CG-30 (200 to 400 mesh). The columns were washed with 5 ml of distilled water followed with 1.0 ml of 0.2 N hydrochloric acid, and the first effluent and the aqueous wash were collected for the determination of 5-hydroxy-indolylacetic acid. Elution was continued with further 1.2 ml of 0.2 N hydrochloric acid in order to remove noradrenaline, dopamine and serotonine. Samples of 0.3 ml were used for the determinations. […]

dopamine-β-hydroxylase [5] = assay: Adrenaline content of adrenal gland (dopamine-β-hydroxylase inhibiting effect); assay type: in vivo, male Wister rats; conditions: rats, i.p., 4 hours; for response vs control in vivo at 100 mg/kg / response vs control in vivo at 200 mg/kg: Rattus norvegicus, ip, ± Standard Error, read-out: Amine level, adrenal gland AD (adrenaline)
Method: as §1, §2, §3
Determination of the adrenaline content of adrenal gland
The adrenal glands were freed from fat and homogenized in 3.0 ml of ice-cold 0.4 N perchloric acid. The homogenized mixtures were centrifuged for 10 minutes at 0° C. with a speed of 3200 r.p.m. on a Janetzky K-70 type centrifuge. 0.05 ml samples were taken from the supernatant, and the adrenaline level was determined directly by the method of Laverty et al (Anal. Biochem., Vol. 22, p. 269, 1968).
as §7

dopamine-β-hydroxylase [6] = conditions: in words, prior art; cited from earlier work
in vivo = conditions: mouse, ip
[7] = read-out: Amine level, cerebrum DA (dopamine)
[8] = read-out: Amine level, cerebrum NA (noradrenaline)
[9] = read-out: Amine level, cerebrum SE (serotonine)
[10] = read-out: Level, cerebrum 5-HIAA (5-hydroxy-indolylacetic acid)

Structure (SMILES) | LD50 (in vivo) | response vs control in vivo at 100 mg/kg (dopamine-β-hydroxylase [1]) | response vs control in vivo at 200 mg/kg (dopamine-β-hydroxylase [1]) | response vs control in vivo at 100 mg/kg (dopamine-β-hydroxylase [3]) | response vs control in vivo at 200 mg/kg (dopamine-β-hydroxylase [3]) | response vs control in vivo at 100 mg/kg (dopamine-β-hydroxylase [4]; [7]) | response vs control in vivo at 100 mg/kg (dopamine-β-hydroxylase [4]; [8]) | response vs control in vivo at 100 mg/kg (dopamine-β-hydroxylase [4]; [9]) | response vs control in vivo at 200 mg/kg (dopamine-β-hydroxylase [4]; [7]) | response vs control in vivo at 200 mg/kg (dopamine-β-hydroxylase [4]; [8]) | response vs control in vivo at 200 mg/kg (dopamine-β-hydroxylase [4]; [9]) | response vs control in vivo at 100 mg/kg (dopamine-β-hydroxylase [5]) | response vs control in vivo at 200 mg/kg (dopamine-β-hydroxylase [5]) | response vs control in vivo at 200 mg/kg (dopamine-β-hydroxylase [4]; [10]) | further results
c1ccc(-c2ccccn2)nc1 [2,2-D, 2,2-dipyridyl, reference compound] |  |  |  |  |  |  |  |  |  |  |  |  |  |  | LD50 (Toxicity (LD50), rats): 150 mg/kg; Amine level, spleen NA (noradrenaline) (dopamine-β-hydroxylase [1]; 37.5 mg/kg): 100 percentages in relation to the controls; dopamine-β-hydroxylase inhibition in vitro (dopamine-β-hydroxylase [2]): effective under in vitro conditions; Amine level, heart NA (noradrenaline) (dopamine-β-hydroxylase [3]; 37.5 mg/kg): 104 percentages in relation to the controls; Amine level, heart NA (noradrenaline) (dopamine-β-hydroxylase [3]; 75 mg/kg): 58 percentages in relation to the controls; Amine level, cerebrum DA (dopamine) (dopamine-β-hydroxylase [4]; 37.5 mg/kg): 116 percentages in relation to the controls; Amine level, cerebrum NA (noradrenaline) (dopamine-β-hydroxylase [4]; 37.5 mg/kg): 79.5 percentages in relation to the controls; Amine level, cerebrum DA (dopamine) (dopamine-β-hydroxylase [4]; 75 mg/kg): 95 percentages in relation to the controls; Amine level, cerebrum NA (noradrenaline) (dopamine-β-hydroxylase [4]; 75 mg/kg): 41.2 percentages in relation to the controls; Amine level, cerebrum SE (serotonine) (dopamine-β-hydroxylase [4]; 75 mg/kg): 100 percentages in relation to the controls; Amine level, adrenal gland AD (adrenaline) (dopamine-β-hydroxylase [5]; 37.5 mg/kg): 80 percentages in relation to the controls; Amine level, adrenal gland AD (adrenaline) (dopamine-β-hydroxylase [5]; 75 mg/kg): 63 percentages in relation to the controls
CN1CCCN(C(=S)SSC(=S)N2CCCN(C)CC2)CC1 [FLA-63, bis(1-methyl-4-homopiperazinyl)-thiocarbonyl-disulfide] |  |  |  |  |  |  |  |  |  |  |  |  |  |  | dopamine-β-hydroxylase inhibition in vivo (dopamine-β-hydroxylase [6]): one of the most potent dopamine-β-hydroxylase inhibitors in vivo
C=CCNC1=C(C(=S)S)CCC1 [Compound M-2, 2-(N-allyl)-amino-cyclopent-1-ene-dithiocarboxylic acid] | ~500 mg/kg | 74.5 ± 10.2% | 89.9 ± 11% | 81.3 ± 5.1% | 123 ± 11.9% | 108 ± 2.9% | 78.6 ± 3.3% | 118 ± 5.7% | 119 ± 7% | 71.1 ± 3.9% | 109 ± 5.9% | 103 ± 7.6% | 71.9 ± 4.7% |  | 
S=C(S)C1=C(Nc2ccccc2)CCC1 [Compound M-8, 2-(N-phenyl)-amino-cyclopent-1-ene-dithiocarboxylic acid] | > 1000 mg/kg |  | 71.3 ± 12.8% |  | 99.9 ± 2.9% |  |  |  | 97.3 ± 7.1% | 75.6 ± 4.6% | 102 ± 7.9% |  | 88.4 ± 4.6% | 135 ± 10% | 
COCCNC1=C(C(=S)S)CCC1 [Compound M-1, 2-(N-methoxyethyl)-amino-cyclopent-1-ene-dithiocarboxylic acid] | ~400 mg/kg | 77.1 ± 8.9% | 110 ± 14.1% | 106 ± 10.3% | 110 ± 7.4% | 107 ± 4.7% | 63.4 ± 3.6% | 116 ± 4.7% | 122 ± 6.7% | 64.2 ± 3.4% | 107 ± 2.7% | 106 ± 6.1% | 91.5 ± 4.7% | 141 ± 12.3% | 
OCCNC1=C(C(=S)S)CCC1 [Compound M-4, 2-(N-hydroxyethyl)-amino-cyclopent-1-ene-dithiocarboxylic acid] | ~800 mg/kg | 81.4 ± 9.4% | 98.4 ± 17.1% | 85 ± 9.7% | 75.4 ± 8.3% | 110 ± 3.5% | 65.4 ± 4.9% | 110 ± 3.3% | 126 ± 2.5% | 41.6 ± 2% | 122 ± 10.5% | 82.7 ± 4.2% | 93.4 ± 7.5% | 132 ± 12.6% | 

From US4199598A, “Method of treating noradrenaline dysfunction or for dopamine-β-hydroxylase inhibition” (Richter Gedeon Vegyeszeti Gyar Rt., priority 1976, dated 1980)
